Experimental data taken from PubChem BioAssay (NCI).
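Cultured in 96-well plates, cells were exposed to test compound for 48 hours across five concentrations. Abbreviation: GI50, concentration required for 50% inhibition of growth. The concentration for full growth arrest is given as TGI.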

Key:
Assay in all cases: NCI anticancer screen, dose series, 48 h
[1] = system: SF-295 CNS
[2] = system: UACC-257 melanoma
[3] = system: SR leukemia
[4] = system: NCI-H23 lung
[5] = system: LOX IMVI melanoma
[6] = system: T-47D breast
[7] = system: MALME-3M melanoma
[8] = system: COLO 205 colon
[9] = system: EKVX NSCLC
[10] = system: MOLT-4 leukemia
[11] = system: SK-MEL-5 melanoma
[12] = system: SK-OV-3 ovarian
[13] = system: MCF7 breast
[14] = system: NCI/ADR-RES ovarian
[15] = system: 786-0 renal
[16] = system: A498 renal
[17] = system: RXF 393 renal
[18] = system: DU-145 prostate
[19] = system: U251 CNS
[20] = system: HOP-92 NSCLC
[21] = system: SW-620 colon
[22] = system: HOP-62 NSCLC
[23] = system: HS 578T breast
[24] = system: CAKI-1 renal
[25] = system: RPMI-8226 leukemia
[26] = system: IGROV1 ovarian
[27] = system: UACC-62 melanoma
[28] = system: HCT-116 colon
[29] = system: MDA-MB-435
[30] = system: BT-549 breast
[31] = system: OVCAR-4 ovarian
[32] = system: MDA-MB-231 breast
[33] = system: OVCAR-5 ovarian
[34] = system: CCRF-CEM leukemia
[35] = system: SNB-19 CNS
[36] = system: SF-539 CNS
[37] = system: NCI-H460 lung
[38] = system: SNB-75 CNS
[39] = system: K-562 leukemia
[40] = system: KM12 colon
[41] = system: NCI-H522 lung
[42] = system: HT29 colon
[43] = system: PC-3 prostate
[44] = system: OVCAR-3 ovarian
[45] = system: SF-268 CNS
[46] = system: SK-MEL-2 melanoma
[47] = system: HL-60(TB) leukemia
[48] = system: HCC-2998 colon
[49] = system: SK-MEL-28 melanoma
[50] = system: M14 melanoma
[51] = system: SN12C renal
[52] = system: ACHN renal
[53] = system: OVCAR-8 ovarian
[54] = system: A549 NSCLC
[55] = system: TK-10 renal
[56] = system: UO-31 renal
[57] = system: NCI-H226 lung

## O=C1c2cccnc2C(=O)c2c1c(C(=O)OCCN1CCOCC1)c1ccccn21
[1]
  GI50: 19.7 nM
  TGI: 1050 nM
[2]
  GI50: 35.4 nM
  TGI: 592 nM
[3]
  GI50: < 10 nM
  TGI: 1830 nM
[4]
  GI50: < 10 nM
[5]
  GI50: < 10 nM
  TGI: 384 nM
[6]
  GI50: 228 nM
  TGI: 5250 nM
[7]
  GI50: 35.3 nM
  TGI: 985 nM
[8]
  GI50: 137 nM
  TGI: 690 nM
[9]
  GI50: 1540 nM
  TGI: 10100 nM
[10]
  GI50: 93.8 nM
  TGI: 3220 nM
[11]
  GI50: 18.9 nM
  TGI: 135 nM
[12]
  GI50: < 10 nM
  TGI: 37.1 nM
[13]
  GI50: < 10 nM
  TGI: 41 nM
[14]
  GI50: < 10 nM
  TGI: 13000 nM
[15]
  GI50: 10.8 nM
  TGI: 2220 nM
[16]
  GI50: 23.6 nM
  TGI: 1650 nM
[17]
  GI50: < 18.7 nM
  TGI: 2910 nM
[18]
  GI50: < 17.5 nM
  TGI: 1310 nM
[19]
  GI50: < 10.4 nM
  TGI: 767 nM
[20]
  GI50: 26.2 nM
  TGI: 319 nM
[21]
  GI50: < 10 nM
  TGI: 3230 nM
[22]
  GI50: < 10 nM
  TGI: < 14.2 nM
[23]
  GI50: 24.3 nM
  TGI: 10800 nM
[24]
  GI50: < 18.4 nM
  TGI: 14600 nM
[25]
  GI50: 91.4 nM
  TGI: 4650 nM
[26]
  GI50: 40.6 nM
  TGI: 9910 nM
[27]
  GI50: < 10 nM
  TGI: 110 nM
[28]
  GI50: 41.7 nM
  TGI: 1490 nM
[29]
  GI50: 38.7 nM
  TGI: 650 nM
[30]
  GI50: 50 nM
  TGI: 2620 nM
[31]
  GI50: 1070 nM
  TGI: 5290 nM
[32]
  GI50: 905 nM
  TGI: 41200 nM
[33]
  GI50: 276 nM
  TGI: 1650 nM
[34]
  GI50: 126 nM
  TGI: 6800 nM
[35]
  GI50: < 10 nM
  TGI: 3150 nM
[36]
  GI50: < 10 nM
  TGI: < 21.2 nM
[37]
  GI50: < 10 nM
  TGI: 1060 nM
[38]
  GI50: < 10 nM
  TGI: 572 nM
[39]
  GI50: 19.8 nM
[40]
  GI50: 72.5 nM
  TGI: 15700 nM
[41]
  GI50: < 10.9 nM
  TGI: 44.9 nM
[42]
  GI50: 316 nM
  TGI: 2310 nM
[43]
  GI50: 81.6 nM
  TGI: 17100 nM
[44]
  GI50: 67.1 nM
  TGI: 1110 nM
[45]
  GI50: < 13.6 nM
  TGI: 16200 nM
[46]
  GI50: 58.5 nM
  TGI: 1610 nM
[47]
  GI50: 78.9 nM
  TGI: 3210 nM
[48]
  GI50: 252 nM
  TGI: 5400 nM
[49]
  GI50: 45.8 nM
  TGI: 2120 nM
[50]
  GI50: < 10 nM
  TGI: 116 nM
[51]
  GI50: < 10 nM
  TGI: 1780 nM
[52]
  GI50: < 10 nM
  TGI: 11500 nM
[53]
  GI50: < 16.8 nM
  TGI: 9210 nM
[54]
  GI50: 20.5 nM
  TGI: 1170 nM
[55]
  GI50: 163 nM
  TGI: 2720 nM
[56]
  GI50: < 10 nM
[57]
  GI50: < 17 nM
  TGI: 696 nM
